Measured values: patent US8629277B2, “Styrenyl 1,2,4-oxadiazole compounds” (Piramal Enterprises Limited, priority 2010, dated 2014)
Read-outs that look alike come from different tables or passages of the source.

Key:
[1] = molecular target: T1, Ba/F3 Bcr-Abl/H396R (Homo sapiens, UniProt P00519, H396R, cells depend on it); test: Cell proliferation and cytotoxicity CCK-8 assay; type: cell-based; conditions: mouse, 72 h
T1 construct: fused on or other part: P11274 (Breakpoint cluster region protein)

[2] = molecular target: Ba/F3 Bcr-Abl/T315I (Homo sapiens, UniProt P00519, T315I, cells depend on it)
Source text: Cell Proliferation and Cytotoxicity CCK-8 Assay:
Cell Counting Kit-8 (CCK-8) assay is a sensitive colorimetric assay for the determination of number of viable cells in cell proliferation and cytotoxicity assays. Cell Counting Kit-8 (CCK-8) utilizes Dojindo's highly water-soluble tetrazolium salt. The amount of the formazan dye generated by dehydrogenases in cells is directly proportional to the number of living cells.
The cell lines described in Table 1 were used to test the antiproliferative activity of the compounds of the present invention.
Cells were seeded at a density of ˜5×10^3 per well (0.09 mL) in a transparent 96-well tissue culture plate (NUNC, USA) and allowed to incubate at 37° C., 5% CO2 incubator for 2-6 h. Different concentrations of compounds of the present invention were added to the wells of the culture plate in triplicate. […] Plates were further incubated in an incubator at 37° C. in presence of 5% CO2 for 72 h. 10 μL of the CCK-8 solution was added to each well and plate was incubated for 1-4 h in the incubator. The absorbance was measured at 450 nm using a microplate reader. The percent inhibition and IC50 were calculated in comparison with control values.

[3] = molecular target: T2, Ba/F3 Bcr-Abl/E255V (Homo sapiens, UniProt P00519, E255V, cells depend on it); test: Cell proliferation and cytotoxicity CCK-8 assay; type: cell-based; conditions: mouse, 72 h
T2 construct: fused on or other part: P11274 (Breakpoint cluster region protein)

[4] = test system: Ba/F3 Bcr-Abl/T315I; test: In-vivo efficacy in imatinib-resistant xenograft model in SCID mice; conditions: 200 mpk b.i.d., p.o.
Experimental: Ba/F3 Bcr-Abl/WT cells and Ba/F3 Bcr-Abl/T315I cells were grown in RPMI1640 medium containing 10% fetal calf serum in 5% CO2 incubator at 37° C. Cells were pelleted by centrifugation at 1000-rpm for 10 minutes. Cells were resuspended in saline to get a count of 80-100×10^6 cells per mL, 0.2 mL of this cell suspension was injected by subcutaneous (s.c.) route in SCID mice. Mice were observed alternate days for palpable tumor mass. Once the tumor size reached a size of 5-7 mm in diameter, animals were randomized into respective treatment groups. Dose of control or test compound was administered every day. Tumor size was recorded at 2-5 day intervals. Tumor weight (mg) was estimated according to the formula for a prolate ellipsoid: {Length (mm)×[width (mm)^2]×0.5} assuming specific gravity to be one and π to be three. Tumor growth in compound treated animals is calculated as T/C (Treated/Control)×100% and Growth inhibition Percent (GI %) was [100−T/C %].

[5] = test system: E255V; test: Flow cytometric analysis of apoptosis (PI staining); type: cell-based
Experimental: (§1) Effect of the Compounds of Present Invention in Bcr-Abl Mutated Imatinib Mesylate-Resistant Cell Lines on Cell Cycle and Apoptosis Using Flow Cytometry.
(§2) The assay was carried out as in reference, FEBS Letters, 2007, 581, 7, 1329-1334. […] At the end of incubation, cells were harvested by centrifugation at 1000 rpm for 10 minutes, washed with phosphate buffered saline (PBS) and gradually resuspended in 70% ice-cold ethanol (to facilitate the permeablisation of stains). Cell suspension was stored for a minimum period of 4 h before staining with propidium iodide (PI). Fixed cells were stained with PI (80 μg/mL) in presence of RNase A (50 μg/mL), and read on Becton Dickinson FACS Calibur (USA) for cell cycle analysis.

[6] = test system: Y253; test: as above; type: cell-based
Experimental: as §1, §2

[7] = test system: Ba/F3; test: as above; type: cell-based
Experimental: as §1, §2

[8] = test system: T315I; test: as above; type: cell-based
Experimental: as §1, §2

[9] = molecular target: T3, Ba/F3 Bcr-Abl/H396P (Homo sapiens, UniProt P00519, H396P, cells depend on it); test: Cell proliferation and cytotoxicity CCK-8 assay; type: cell-based; conditions: mouse, 72 h
T3 construct: fused on or other part: P11274 (Breakpoint cluster region protein)

[10] = test system: K562; test: Cell proliferation and cytotoxicity CCK-8 assay; type: cell-based, human; conditions: Homo sapiens; imatinib sensitive cell line K562; CCK-8, 72 h; read-out: Inhibitory concentrations (IC50) K562
[11] = molecular target: T4, Ba/F3 Bcr-Abl/Y253F (Homo sapiens, UniProt P00519, Y253F, cells depend on it); test: Cell proliferation and cytotoxicity CCK-8 assay; type: cell-based; conditions: mouse, 72 h
T4 construct: fused on or other part: P11274 (Breakpoint cluster region protein)

[12] = molecular target: T5, Ba/F3 Bcr-Abl/M244V (Homo sapiens, UniProt P00519, M244V, cells depend on it); test: Cell proliferation and cytotoxicity CCK-8 assay; type: cell-based; conditions: mouse, 72 h
T5 construct: fused on or other part: P11274 (Breakpoint cluster region protein)

[13] = test system: Ba/F3 Bcr-Abl/WT; test: In-vivo efficacy in imatinib-sensitive xenograft model in SCID mice; conditions: 200 mpk b.i.d., p.o.
Experimental: In-vivo efficacy testing of compounds of the present invention in imatinib resistant and imatinib sensitive tumor models was carried out according to the reference Cancer Research, 2002, 62, 7149-7153.
Cell lines Ba/F3 transfectants expressing full-length wild type imatinib sensitive (Ba/F3 Bcr-Abl/WT) or mutated imatinib resistant (Ba/F3 Bcr-Abl/T315I) were used in this study. These recombinant cell lines were licensed from Dr. Brian Druker's laboratory, Howard Hughes Medical Institute, Oregon Health and Science University Cancer Institute, Portland, Oreg., USA.
Required compound was weighed and admixed with 0.5% (w/v) carboxymethylcellulose (CMC) and triturated with Tween-20 (secundum artum) with gradual addition of water to make up the final concentration. Imatinib mesylate was used as a standard.
A group of 110 Severely Combined Immune-Deficient (SCID strain-CBySmn.CB17-Prkdc^scid/J, The Jackson Laboratory, Stock #001803) male mice, 5-6 weeks old, weighing ˜20 g, were used.
Ba/F3 Bcr-Abl/WT cells and Ba/F3 Bcr-Abl/T315I cells were grown in RPMI1640 medium containing 10% fetal calf serum in 5% CO2 incubator at 37° C. Cells were pelleted by centrifugation at 1000-rpm for 10 minutes. […] Tumor size was recorded at 2-5 day intervals. […] Tumor growth in compound treated animals is calculated as T/C (Treated/Control)×100% and Growth inhibition Percent (GI %) was [100−T/C %].

[14] = molecular target: T6, Ba/F3 Bcr-Abl/F317L (Homo sapiens, UniProt P00519, F317L, cells depend on it); test: Cell proliferation and cytotoxicity CCK-8 assay; type: cell-based; conditions: mouse, 72 h
T6 construct: fused on or other part: P11274 (Breakpoint cluster region protein)

[15] = molecular target: T7, Ba/F3 Bcr-Abl/F359V (Homo sapiens, UniProt P00519, F359V, cells depend on it); test: Cell proliferation and cytotoxicity CCK-8 assay; type: cell-based; conditions: mouse, 72 h
T7 construct: fused on or other part: P11274 (Breakpoint cluster region protein)

[16] = mouse, ba/f3 bcr-abl/t315i, 72 h
[17] = read-out: Inhibitory concentrations (IC50) Ba/F3 Bcr-Abl/T315I, imatinib resistant cell line, CCK-8, 72 h

Row | Compound | GI50 [1] | GI50 [2, 16] | GI50 [2, 17] | GI50 [3] | Tumor growth inhibition percent (% GI) Ba/F3 Bcr-Abl/T315I [4] | % Apoptosis by Flow Cytometry Analysis ([5]; 3X IC50, 96 h time point) | % Apoptosis by Flow Cytometry Analysis ([5]; 5X IC50, 48 h time point) | % Apoptosis by Flow Cytometry Analysis ([5]; 5X IC50, 96 h time point) | % Apoptosis by Flow Cytometry Analysis ([6]; 3X IC50, 96 h time point) | % Apoptosis by Flow Cytometry Analysis ([6]; 5X IC50, 48 h time point) | % Apoptosis by Flow Cytometry Analysis ([6]; 5X IC50, 96 h time point) | % Apoptosis by Flow Cytometry Analysis ([7]; 3X IC50, 96 h time point) | % Apoptosis by Flow Cytometry Analysis ([7]; 5X IC50, 48 h time point) | % Apoptosis by Flow Cytometry Analysis ([7]; 5X IC50, 96 h time point) | % Apoptosis by Flow Cytometry Analysis ([8]; 3X IC50, 96 h time point) | % Apoptosis by Flow Cytometry Analysis ([8]; 5X IC50, 48 h time point) | % Apoptosis by Flow Cytometry Analysis ([8]; 5X IC50, 96 h time point) | GI50 [9] | IC50 [10] | GI50 [11] | further results
1 | CCCc1noc(C=Cc2ccc(O)c(O)c2)n1 [Compound of Example 3, 4-[2-(3-Propyl-[1,2,4]oxadiazol-5-yl)-vinyl]-benzene-1,2-diol] | 2250 ± 770 nM | 2320 ± 680 nM | < 10000 nM | 2100 ± 750 nM | 54% | 78% | 91.2% | 90.9% | 62% | 87.5% | 94.9% | 95% | 46% | 84% | 78% | 97.6% | 85% | 2000 ± 980 nM | 11000 to 100000 nM | 1500 ± 560 nM | GI50 [12]: 2100 nM; Tumor growth inhibition percent (% GI) Ba/F3 Bcr-Abl/WT [13]: 63%; GI50 [14]: 1950 ± 210 nM; GI50 [15]: 2000 ± 420 nM
2 | Oc1ccc(C=Cc2nc(Cc3ccccc3)no2)cc1O [Compound of Example 4, 4-[2-(3-Benzyl-[1,2,4]oxadiazol-5-yl)-vinyl]-benzene-1,2-diol] | 3050 ± 70 nM | 1880 ± 310 nM | < 10000 nM | 4000 ± 1400 nM | 65% | 94.4% | 93% | 97.4% | 70.6% | 89% | 96.6% | 97% | 46% | 93% | 80.58% | 98.2% | 63.9% | 2600 ± 1200 nM | 11000 to 100000 nM | 2100 ± 140 nM | GI50 [12]: 2300 nM; Tumor growth inhibition percent (% GI) Ba/F3 Bcr-Abl/WT [13]: 36%; GI50 [14]: 2850 ± 350 nM; GI50 [15]: 3000 ± 700 nM
